Counter-ions that a name gives are not always drawn.

This experiment concerns the target T1, human PPARα (Homo sapiens, UniProt Q07869).
T1 construct: amino acids S167-Y468; expressed in transfected cells; host or cells: HEK (human embryo kidney) cells, stably transfected with pcDNA3 carrying the fusion construct
T1 sequence (Q07869 167-468): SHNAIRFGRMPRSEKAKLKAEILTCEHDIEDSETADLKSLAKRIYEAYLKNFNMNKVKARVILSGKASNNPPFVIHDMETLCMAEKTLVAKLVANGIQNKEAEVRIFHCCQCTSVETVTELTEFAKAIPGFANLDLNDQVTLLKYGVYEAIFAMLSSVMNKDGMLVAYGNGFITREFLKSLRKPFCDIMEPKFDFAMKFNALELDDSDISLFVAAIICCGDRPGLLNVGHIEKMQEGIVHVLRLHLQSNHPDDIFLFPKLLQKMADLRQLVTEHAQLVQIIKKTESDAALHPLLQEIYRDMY
Kind of experiment: Cellular PPARalpha assay (stably transfected HEK PPARalpha reporter cell line, luciferase). As to conditions: 24 h incubation, luciferase readout. In kind it is cell-based. As to the method: (A) Determination of EC50 Values of PPAR Agonists in the Cellular PPARalpha Assay
The potency of substances that bind to human PPARα and activate in an agonistic manner is analyzed using a stably transfected HEK cell line (HEK=human embryo kidney) which is referred to here as PPARalpha reporter cell line. It contains two genetic elements, a luciferase reporter element (pΔM-GAL4-Luc-Zeo) and a PPARalpha fusion protein (GR-GAL4-humanPPARα-LBD) that mediates expression of the luciferase reporter element depending on a PPARalpha ligand. The stably and constitutively expressed fusion protein GR-GAL4-humanPPARalpha-LBD binds in the cell nucleus of the PPARalpha reporter cell line via the GAL4 protein portion to the GAL4 DNA binding motifs 5′-upstream of the luciferase reporter element which is integrated in the genome of the cell line. There is only little expression of the luciferase reporter gene without addition of a PPARalpha ligand if fatty acid-depleted fetal calf serum (cs-FCS) is used in the assay. PPARα ligands bind and activate the PPARα fusion protein and thereby bring about expression of the luciferase reporter gene. The luciferase which is formed can be detected by means of chemiluminescence via an appropriate substrate.
The PPARalpha reporter cell line was prepared in 2 stages. Firstly, the luciferase reporter element was constructed and stably transfected into HEK cells. For this purpose, five binding sites of the yeast transcription factor GAL4 (each 5′-CGGAGTACTGTCCTCCGAG-3′ (SEQ ID NO:1)) were cloned in 5′-upstream of a 68 bp-long minimal MMTV promoter (Genbank Accession # V01175). The minimal MMTV promoter section contains a CCAAT box and a TATA element in order to enable efficient transcription by RNA polymerase II. The cloning and sequencing of the GAL4-MMTV construct took place in analogy to the description of Sambrook J. et. al. (Molecular cloning, Cold Spring Harbor Laboratory Press, 1989). Then the complete Photinus pyralis gene (Genbank Accession # M15077) was cloned in 3′-downstream of the GAL4-MMTV element. After sequencing, the luceriferase reporter element consisting of five GAL4 binding sites, MMTV promoter and luciferase gene was recloned into a plasmid which confers zeocin resistance in order to obtain the plasmid pΔM-GAL4-Luc-Zeo. This vector was transfected into HEK cells in accordance with the statements in Ausubel, F. M. et al. (Current protocols in molecular biology, Vol.1-3, John Wiley & Sons, Inc., 1995). […] In a second step, the PPARalpha fusion protein (GR-GAL4-humanPPARalpha-LBD) was introduced into the stable cell clone described. For this purpose, initially the cDNA coding for the N-terminal 76 amino acids of the glucocorticoid receptor (Genbank Accession # P04150) was linked to the cDNA section coding for amino acids 1-147 of the yeast transcription factor GAL4 (Genbank Accession # P04386). The cDNA of the ligand-binding domain of the human PPARalpha receptor (amino acids S167-Y468; Genbank Accession # S74349) was cloned in at the 3′-end of this GR-GAL4 construct. The fusion construct prepared in this way (GR-GAL4-humanPPARalpha-LBD) was recloned into the plasmid pcDNA3 (from Invitrogen) in order to enable constitutive expression therein by the cytomegalovirus promoter. This plasmid was linearized with a restriction endonuclease and stably transfected into the previously described cell clone containing the luciferase reporter element. The finished PPARalpha reporter cell line that contains a luciferase reporter element and constitutively expresses the PPARalpha fusion protein (GR-GAL4-human PPARalpha-LBD) was isolated by selection with zeocin (0.5 mg/ml) and G418 (0.5 mg/ml).
The activity of PPARalpha agonists is determined in a 3-day assay described below: […]
What is called EC50 is the concentration giving half of the maximal effect. High values mean a need for much substance, low ones an effect from little substance. In turn, `Cc1ccc(-c2nc(CO[C@@H]3CCC[C@H](CSCC(=O)O)C3)c(C)o2)cc1` (racemic) [Example 22] registered a concentration for a half-maximal effect (EC50) of 0.07 nM.

`Cc1ccc(-c2nc(COC3CCCC(CN(Cc4ccccc4)[C@H](C(=O)O)C(C)C)C3)c(C)o2)cc1` (mixture of isomers) [Example 51, (S)-2-{benzyl-[cis-3-(5-methyl-2-p-tolyloxazol-4-ylmethoxy)-cyclohexylmethyl]amino}-3-methylbutyric acid trifluoroacetic acid salt]: the 50% effective concentration (EC50) is 12 nM.

In the case of `Cc1ccc(-c2nc(CO[C@@H]3CCC[C@H](COC4(C(=O)O)CCCC4)C3)c(C)o2)cc1` (relative stereo) [Example 9, 1-[cis-3-(5-Methyl-2-p-tolyloxazol-4-ylmethoxy)cyclohexylmethoxy]cyclo-pentanecarboxylic acid], the half-maximal effective concentration (EC50) came to 4.3 nM.

The compound `Cc1ccc(-c2nc(COC3CCCC(CN[C@H](C(=O)O)C(C)C)C3)c(C)o2)cc1` (mixture of isomers) [Example 42, (S)-3-Methyl-2{[cis-3-(5-methyl-2-p-tolyloxazol-4-ylmethoxy)cyclohexyl-methyl]amino}butyric acid] had an EC50 of 79 nM.

For `Cc1ccc(-c2nc(CO[C@H]3CCC[C@@H](COC(C)(C)C(=O)O)C3)c(C)o2)cc1` [Example 8a, 2-[(1R,3S)-3-(5-Methyl-2-p-tolyloxazol-4-ylmethoxy)cyclohexylmethoxy]-2-methylpropionic Acid], it took 1.8 nM to reach a half-maximal effect (EC50).

The compound `Cc1oc(-c2ccc(C(F)(F)F)cc2)nc1COC1CCCC(COC(C)(C)C(=O)O)C1` [Example 16, 2-methyl-2-{(1R,3S)-cis-3-[5-methyl-2-(4-trifluoromethyl-phenyl)oxazol-4-ylmethoxy]cyclohexylmethoxy}propionic acid] came in with an EC50 of 4 nM.

`COc1cccc(-c2nc(CO[C@@H]3CCC[C@H](CCC(C(=O)O)C(C)C)C3)c(C)o2)c1` (relative stereo) [Example 74, 2-(2-{cis-3-[2-(3-methoxyphenyl)-5-methyloxazol-4-ylmethoxy]cyclohexyl}ethyl)-3-methylbutyric acid] showed an EC50 of 0.4 nM.

Regarding `CCCCCC(C(=O)O)[S+]([O-])CC1CCCC(OCc2nc(-c3ccc(C)cc3)oc2C)C1` (stereo not drawn) [Example 33, 2-[cis-3-(5-methyl-2-p-tolyloxazol-4-ylmethoxy)cyclohexylmethylsulfinyl]heptanoic acid], the 50% effective concentration (EC50) was found to be 17 nM.

For the compound `CCC(SCC1CCCC(OCc2nc(-c3ccc(C)cc3)oc2C)C1)C(=O)O` (stereo not drawn) [Example 24, 2-[cis-3-(5-methyl-2-p-tolyloxazol-4-ylmethoxy)cyclohexylmethylsulfanyl]butyric acid], the EC50 was determined as 0.3 nM.

Turning to `Cc1ccc(-c2nc(CO[C@@H]3CCC[C@H](COC(Cc4ccccc4)C(=O)O)C3)c(C)o2)cc1` (relative stereo) [Example 4, 2-[cis-3-(5-methyl-2-p-tolyloxazol-4-ylmethoxy)cyclohexyl-methoxy]-3-phenylpropionic acid], the EC50 worked out at 25 nM.

With `CCc1oc(-c2ccc3ccccc3c2)nc1COC[C@@H]1CCC[C@H](COC(C)(C)C(=O)O)C1` (racemic) [Example 64, 2-[cis-3-(5-ethyl-2-(2-naphthyl)oxazol-4-yl-methoxymethyl)cyclohexylmethoxy]-2-methylpropionic acid], it took 0.4 nM to reach a half-maximal effect (EC50).

With `CCCCCC(C(=O)O)S(=O)(=O)CC1CCCC(OCc2nc(-c3ccc(C)cc3)oc2C)C1` (stereo not drawn) [Example 38, 2-[cis-3-(5-methyl-2-p-tolyloxazol-4-ylmethoxy)cyclohexylmethylsulfonyl]heptanoic acid], the half-maximal effective concentration (EC50) is 8.5 nM.

The record behind these values is patent publication US7259177B2, “Cycloalkylmethoxy-substituted acetic acid derivatives, processes for their preparation and their use as pharmaceuticals” (Sanofi-Aventis Deutschland GmbH, priority 2003, dated 2007).
